The source of these data is US7557116B2, “Substance which exhibits antiviral and antibacterial activity and is based on derivatives of 2,8-dithioxo-1H-pyrano[2,3d 6,5-d′]dipyrimidyne and 10-aza-analogue thereof” (priority 2003, dated 2009).

By inhibition is commonly meant the percentage by which the read-out fell short of the control.

Common to all, as to assay type: cell-based
The subject of test [1] is Human Immunodeficiency Virus Type 1. The test is described as follows: Anti-HIV activity: protection of MT4 T-lymphoblastoid cells (IFA). As for the experimental part:
(§1) Activity against the Human immunodeficiency Virus (HIV) was also determined and, more specifically, the compounds antiviral effectiveness in protecting the T-lymphoblastoid cells MT4 from being infected by the virus-containing liquid of HTHIV27 cultures. The cells infected by the virus were analyzed according to the following methods: (1) An indirect immunofluorescence (IFA) with a polyclonal anti-serum was received from an HIV Infected human (the antibody titer in the IFA was 1:1000000) and, (2) A competitive IFA was utilized with monoclonal antibodies (MonAb) to p24 HIV and a polyclonal substrate. A solution of 1:540 was used in the tests. Azidothymidin (AZT) was used as the control.
The results documented in the table shown in TABLE 6 evidence that the compounds tested inhibit the reproduction of the Human Immunodeficiency Virus Type 1.

Test [2] deals with Human Immunodeficiency Virus. The test is described as follows: Anti-HIV activity alone and in combination with azidothymidin in MT4 cells. Here is the method: as §1, with “[…] The methods utilized to analyze the compounds effectiveness were the same” for “Azidothymidin (AZT) was used”, “foregoing methods.” for “control.”
Another test relates to Herpes virus of type I. The test is described as follows: Protection of Vero cells from Herpes virus of type I. The settings on record: for Number of cells: number of cells in 100 fields.
The test system of another test is Influenza virus B. Conditions: Influenza virus B; 72 hours at 33-34 C; ineffective when IN less than 1.0.
For test [3], the system named is Chlamydia trachomatis D323. The test is described as follows: Protection of cell culture from Chlamydia trachomatis (immunofluorescence, cytoplasmatic inclusions). The text has this:
The antiviral activity of the claimed compounds were also all tested against the Chlemydia trachomatis. The effects of the claimed compounds on the Chlamydia trachomatis are charted in TABLE 4. A relative strain of Chlamydia trachomatis D323 was used to test the claimed compounds. The strain, derived from a patient with Chlamydia urethritis, comprised a morphology and a physiological activity characteristic of and representative of that type. An infection dose of Chlamydia having a concentration of 1/10^6 cells/ml was introduced into a cell culture. Immunofluorescence (MicroTrack Chlamydia trachomatis Direct Specimen Test) was conducted to determine the significance of the chlamydial cytoplasmatic inclusions (CPI). A CylaMonoScreen was conducted to obtain the chlamydia antigens. The monolayer state and the number of cells with CPI were compared to the control to determine the effects the claimed compounds have on the chlamydia. The number of unchanged cells in 100 visual fields were counted utilizing a special net on a microscopic eyepiece.

A further test concerns Influenza virus A. Conditions: Influenza virus A; 48 hours at 33-34 C; ineffective when IN less than 1.0.

`Cc1cn([C@H]2C[C@H](N=[N+]=[N-])[C@@H](CO)O2)c(=O)[nH]c1=O` [AZT, Azidothymidin, reference compound]: the “Level of inhibition of virus reproduction” value in test [1] (5 mg/l) was 100%; in test [1] (50 mg/l), 100%; in test [1] (100 mg/l), 100%; in test [2] (0.05 mg/l), 50%; in test [2] (5.0 mg/l), 100%.
For `Nc1nc(=S)[nH]c2c1C(c1ccc([N+](=O)[O-])cc1)c1c(O)nc(=S)[nH]c1O2` (stereo not shown) [III, 4-amino-6-hydroxi-5-(4-nitrophenyl)-5,9-dihydro-1H-pyrano[2,3-d: 6,5-d′]dipyrimidine-2,8-dition], the “percentage of protection of cells from virus” value is listed as 70% in the test on Herpes virus of type I (compound 10 mg/l), 80% in the test on Herpes virus of type I (compound 50 mg/l) and 100% with Herpes virus of type I (compound 100 mg/l). Also, the figures for the Number of cells in the test with Herpes virus of type I (compound 10 mg/l), in the test on Herpes virus of type I (compound 50 mg/l) and with Herpes virus of type I (compound 100 mg/l) were 8400, 9600 and 12000, respectively. Also, the Index of neutralization in the test on Influenza virus B was determined as 1.0; in the test on Influenza virus A, 0.5. In addition, the figures for the “Level of inhibition of virus reproduction” value in test [1] (5 mg/l), in test [1] (50 mg/l) and in test [1] (100 mg/l) were 70%, 90% and 100%, respectively. The “Percentage of cells' defense from C. trachomatis” value (“Percentage of cells' defense” below) in test [3] (compound 30 mg/l) is listed as 70%; in test [3] (compound 100 mg/l), 100%.
Consider `O=[N+]([O-])c1ccc(C2c3c(O)nc(=S)[nH]c3Oc3[nH]c(=S)nc(Cl)c32)cc1` (stereo not shown) [Ib, 4-chlorine-6-hydroxi-5-(4-nitrophenyl)-5,9-dihydro-1H-pyrano[2,3-d: 6,5-d′]dipyrimidine-2,8-dition], for which the Index of neutralization in the test with Influenza virus B and with Influenza virus A was 0.5 in each case. Also, the inhibition at 5 µg/mL in test [1] (Human immunodeficiency virus 1, 5 mg/l, read-out: Level of inhibition of virus reproduction) was found to be 70%; in test [2] (Human immunodeficiency virus 1, 5.0 mg/l, read-out: Level of inhibition of virus reproduction), 70%. Moreover, the inhibition at 50 µg/mL in test [1] (Human immunodeficiency virus 1, 50 mg/l, read-out: Level of inhibition of virus reproduction) is 90%. Further, in test [1] (Human immunodeficiency virus 1, 100 mg/l, read-out: Level of inhibition of virus reproduction), the inhibition at 100 µg/mL was determined as 100%. The results for the “Percentage of cells' defense” value in test [3] (compound 30 mg/l) and in test [3] (compound 100 mg/l) were 60% and 80%, respectively. The inhibition at 0.5 µg/mL in test [2] (Human immunodeficiency virus 1, 0.5 mg/l, read-out: Level of inhibition of virus reproduction) turned out to be 20%.
On to `Nc1nc(=S)[nH]c2c1C(c1ccc([N+](=O)[O-])cc1)c1c(N)nc(=S)[nH]c1O2` [V, 4,6-diamino-5-(4-nytrophenyl)-5,9-dihydro-1H-pyrano[2,3-d: 6,5-d′]dipyrimidine-2,8-dition], for which the “percentage of protection of cells from virus” value is 60% in the test with Herpes virus of type I (compound 10 mg/l), 80% in the test with Herpes virus of type I (compound 50 mg/l) and 90% in the test with Herpes virus of type I (compound 100 mg/l). Moreover, the results for the Number of cells with Herpes virus of type I (compound 10 mg/l), in the test on Herpes virus of type I (compound 50 mg/l) and with Herpes virus of type I (compound 100 mg/l) were 7200, 9600 and 10800, respectively. Besides, the results for the Index of neutralization with Influenza virus B and in the test with Influenza virus A were 1.5 and 1.0, respectively. For the same molecule, the “Level of inhibition of virus reproduction” value is listed as 90% in test [1] (5 mg/l), 100% in test [1] (50 mg/l) and 100% in test [1] (100 mg/l). The “Percentage of cells' defense” value is recorded as 50% in test [3] (compound 30 mg/l) and 80% in test [3] (compound 100 mg/l).
